These are literature values, as cited in patent US10413482B2, “Delamination resistant pharmaceutical glass containers containing active pharmaceutical ingredients” (Corning Incorporated, priority 2011, dated 2019).

The test system of data set [1] is patients with acute coronary syndrome (ACS). Conditions: in vivo.
Data set [2] relates to patients whose asthma cannot be adequately controlled with inhalable glucocorticoids. The conditions noted are these: in vivo.
The conditions of data set [3]: for duration of action: after injection.
In data set [4] the test system is patients with moderate to severe ulcerative colitis. Conditions: in vivo.
Experiment in data set [5]: not given
The source holds these as a separate data set.

For data set [6] the following is noted: once-daily.
Data set [7] deals with adults with late-onset LAL Deficiency.

`COC(=O)[C@H](Cc1cccc(C(=N)N)c1)[C@@H](C)NC(=O)c1ccc(-c2cc[n+]([O-])cc2)cc1` (mixture of isomers) [Otamixaban, reference compound]: for the setting “formulations at pH between 3 and 5”, the “degradation during sterilization and storage” value was “decreased otamixaban degradation during sterilization and storage”. For the same molecule, in data set [1], the major coronary complications entry is on record as “reduce major coronary complications”.

Turning to “lebrikizumab: humanized monoclonal antibody against interleukin-13 (IL-13)”, the symptoms of asthma result in data set [2] was “significantly decrease the symptoms of asthma”. For the molecule insulin degludec, the duration of action result in data set [3] is recorded as “more than 24 hours”. For the molecule “Vedolizumab: humanized monoclonal antibody targeting α4β7 integrin”, the “safety and clinical remission” value in data set [4] is “safe and effective for inducing and maintaining clinical remission”. Regarding “insulin regular: formulation of recombinant insulin structurally identical to the insulin produced by the human pancreas”, the duration of action result in data set [3] is recorded as “approximately 8 hours”. The “onset of pharmacologic effect” value in data set [3] (after subcutaneous administration) is reported as “approximately one-half”. A word on the half-life: it is the time in which the quantity being followed falls by half. In the case of `[Cl][223Ra][Cl]` [Radium-223, Radium-223 dichloride], the half-life in data set [5] is given as 11.4 days. In the case of relaxin, the shelf-life entry (approximately pH 5, 5° C., acceptable reduction of 10% in the HPLC main peak area) was “at least 2 years”. With lixisenatide, the tolerability entry in data set [6] is “well-tolerated”. In addition, the glycemic control entry in data set [6] (one-step dose increase, single maintenance dose) is reported as “significantly improved glycemic control”.

Insulin detemir: the duration of action result in data set [3] is “up to 24 hours”.

B1: SBC-102: recombinant form of the human LAL enzyme (protein, UniProt P38571 77-399, looked up)
Lysosomal acid …: GPKPVVFLQHGLLADSSNWVTNLANSSLGFILADAGFDVWMGNSRGNTWSRKHKTLSVSQDEFWAFSYDEMAKYDLPASINFILNKTGQEQVYYVGHSQGTTIGFIAFSQIPELAKRIKMFFALGPVASVAFCTSPMAKLGRLPDHLIKDLFGDKEFLPQSAFLKWLGTHVCTHVILKELCGNLCFLLCGFNERNLNMSRVDVYTTHSPAGTSVQNMLHWSQAVKFQKFQAFDWGSSAKNYFHYNQSYPPTYNVKDMLVPTAVWSGGHDWLADVYDVNILLTQITNLVFHESIPEWEHLDFIWGLDAPWRLYNKIINLMRKYQ
Regarding B1, in data set [7] (same time period), the LDL result is on record as “a reduction in LDL was also observed”. Further, in data set [7] (versus original baseline, p<0.05), the “total cholesterol, HDL cholesterol, and triglycerides” value is “significantly improved”. The liver transaminase levels entry in data set [7] (weekly then every other week infusions) is given as “sustained impact of SBC-102 on reducing liver transaminase levels”.
